Our source for the Kd and EC50 values is US10947252B2, “Inhibitors of KEAP1-Nrf2 protein-protein interaction” (Janssen Pharmaceutica NV, priority 2018, dated 2021).

The Kd is the free concentration of one partner at which half of the binding sites on the other are occupied at equilibrium, for simple one-to-one binding. The term EC50 denotes the concentration needed to bring the measured effect to its halfway point. A low value points to higher potency in that assay.

Test [1] addresses Kelch domain of human KEAP1 (321-624 aa) (Homo sapiens (Human), UniProt Q14145). Briefly: KEAP1 KELCH ThermoFluor binding assay.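 Further: Ligand-induced melting temperature shift of E. coli-expressed KEAP1 Kelch protein, Kd estimated from concentration-response curves of ΔTm.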 To be noted: KEAP Kelch […], 1,8-ANS, pH 7.0, average of results obtained, read-out: Tf Kd. A general note: In DSF a fluorescence change marks the thermal transition of the protein.
Test [2] relates to Glo-Response ARE-luc2P HEK293 cell line. Put plainly: ARE luciferase reporter cell-based assay.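 Further: luciferase signal tracks Nrf2 activation of the ARE once compounds disrupt KEAP1-Nrf2 binding, read with One-Glo reagent, DMSO serving as low control.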 Conditions: Homo sapiens, HEK293, 24 h, average of results obtained. For orientation: A reporter such as luciferase makes a cellular process visible.

Kelch domain of human KEAP1 (321-624 aa), sequence (Q14145 321-624): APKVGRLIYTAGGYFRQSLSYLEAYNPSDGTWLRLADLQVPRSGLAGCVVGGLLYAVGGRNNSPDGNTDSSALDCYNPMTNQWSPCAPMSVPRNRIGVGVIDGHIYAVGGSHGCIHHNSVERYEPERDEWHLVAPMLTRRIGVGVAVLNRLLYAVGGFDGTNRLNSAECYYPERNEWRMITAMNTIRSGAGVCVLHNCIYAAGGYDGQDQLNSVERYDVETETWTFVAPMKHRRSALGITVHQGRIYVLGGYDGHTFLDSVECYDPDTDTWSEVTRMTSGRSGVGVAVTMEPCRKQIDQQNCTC

Regarding `Cc1cnc([C@@H](c2ccn3c(C(F)F)nnc3c2C)C(C)(C)C(=O)O)cc1CN1CC2(CC2)Oc2nc(OCCN3CCCCC3)c(C)cc2S1(=O)=O` (single isomer, unassigned) [Example 638, (*S)-3-(3-(Difluoromethyl)-8-methyl-[1,2,4]triazolo[4,3-a]pyridin-7-yl)-2,2-dimethyl-3-(5-methyl-4-((8′-methyl-1′,1′-dioxido-7′-(2-(piperidin-1-yl)ethoxy)spiro[cyclopropane-1,4′-pyrido[2,3-b][1,4,5]oxathiazepin]-2′(3′H)-yl)methyl)pyridin-2-yl)propanoic Acid], the Kd in test [1] was less than 1 nM. Also, in test [2], the EC50 amounted to 20.1 nM.
For the molecule `Cc1cnc([C@H](c2ccn3c(C(F)F)nnc3c2C)C(C)(C)C(=O)O)cc1CN1CC2(CCOCC2)Oc2nc(OCCN3CCCC3)c(C)cc2S1(=O)=O` (single isomer, unassigned) [Example 639, (*R)-3-(3-(Difluoromethyl)-8-methyl-[1,2,4]triazolo[4,3-a]pyridin-7-yl)-2,2-dimethyl-3-(5-methyl-4-((8′-methyl-1′,1′-dioxido-7′-(2-(pyrrolidin-1-yl)ethoxy)-2,3,5,6-tetrahydrospiro[pyran-4,4′-pyrido[2,3-b][1,4,5]oxathiazepin]-2′(3′H)-yl)methyl)pyridin-2-yl)propanoic Acid], the Kd in test [1] came to 1820 nM. This molecule also had an EC50 in test [2] of 5170 nM.
Take `Cc1cnc([C@@H](c2ccn3c(C(F)F)nnc3c2C)C(C)(C)C(=O)O)cc1CN1CC2(CCOCC2)Oc2nc(OCCN3CCCC3)c(C)cc2S1(=O)=O` (single isomer, unassigned) [Example 640, (*S)-3-(3-(Difluoromethyl)-8-methyl-[1,2,4]triazolo[4,3-a]pyridin-7-yl)-2,2-dimethyl-3-(5-methyl-4-((8′-methyl-1′,1′-dioxido-7′-(2-(pyrrolidin-1-yl)ethoxy)-2,3,5,6-tetrahydrospiro[pyran-4,4′-pyrido[2,3-b][1,4,5]oxathiazepin]-2′(3′H)-yl)methyl)pyridin-2-yl)propanoic Acid]: in test [1], the Kd is less than 1 nM. Besides, the EC50 in test [2] is 73.9 nM.
On the same counts, the results for `Cc1cnc([C@@H](c2ccn3c(C(F)F)nnc3c2C)C(C)(C)C(=O)O)cc1CN1CC2(CCOCC2)Oc2nc(OCCN3CCCCC3)c(C)cc2S1(=O)=O` (single isomer, unassigned) [Example 642, (*S)-3-(3-(Difluoromethyl)-8-methyl-[1,2,4]triazolo[4,3-a]pyridin-7-yl)-2,2-dimethyl-3-(5-methyl-4-((8′-methyl-1′,1′-dioxido-7′-(2-(piperidin-1-yl)ethoxy)-2,3,5,6-tetrahydrospiro[pyran-4,4′-pyrido[2,3-b][1,4,5]oxathiazepin]-2′(3′H)-yl)methyl)pyridin-2-yl)propanoic Acid] are less than 1 nM and 36.6 nM.
On the same counts, the results for `Cc1ccc([C@H](c2ccn3c(C(F)F)nnc3c2C)C(C)(C)C(=O)O)nc1CN1CC2(CCOCC2)Oc2nc(OCCN3CCCC3)c(C)cc2S1(=O)=O` (single isomer, unassigned) [Example 643, (*R)-3-(3-(Difluoromethyl)-8-methyl-[1,2,4]triazolo[4,3-a]pyridin-7-yl)-2,2-dimethyl-3-(5-methyl-6-((8′-methyl-1′,1′-dioxido-7′-(2-(pyrrolidin-1-yl)ethoxy)-2,3,5,6-tetrahydrospiro[pyran-4,4′-pyrido[2,3-b][1,4,5]oxathiazepin]-2′(3′H)-yl)methyl)pyridin-2-yl)propanoic Acid] are 2420 nM and 9780 nM.
As for `Cc1ccc([C@@H](c2ccn3c(C(F)F)nnc3c2C)C(C)(C)C(=O)O)nc1CN1CC2(CCOCC2)Oc2nc(OCCN3CCCC3)c(C)cc2S1(=O)=O` (single isomer, unassigned) [Example 644, (*S)-3-(3-(Difluoromethyl)-8-methyl-[1,2,4]triazolo[4,3-a]pyridin-7-yl)-2,2-dimethyl-3-(5-methyl-6-((8′-methyl-1′,1′-dioxido-7′-(2-(pyrrolidin-1-yl)ethoxy)-2,3,5,6-tetrahydrospiro[pyran-4,4′-pyrido[2,3-b][1,4,5]oxathiazepin]-2′(3′H)-yl)methyl)pyridin-2-yl)propanoic Acid], the Kd in test [1] was less than 1 nM. Moreover, in test [2], the EC50 was determined as 51.7 nM.
On the same counts, the results for `Cc1cnc2c(c1)S(=O)(=O)N(Cc1cc([C@H](c3ccc4c(nnn4C4CC4)c3C)C(C)(C)C(=O)O)ccc1C)CC1(CNC1)O2` (single isomer, unassigned) [Example 645, (*R)-3-(1-Cyclopropyl-4-methyl-1H-benzo[d][1,2,3]triazol-5-yl)-2,2-dimethyl-3-(4-methyl-3-((8′-methyl-1′,1′-dioxidospiro[azetidine-3,4′-pyrido[2,3-b][1,4,5]oxathiazepin]-2′(3′H)-yl)methyl)phenyl)propanoic Acid] are less than 1 nM and 1.5 nM.
On the same counts, the results for `Cc1ccc([C@H](c2ccc3c(nnn3C3CC3)c2C)C(C)(C)C(=O)O)cc1CN1CC2(CCNCC2)Oc2ncccc2S1(=O)=O` (single isomer, unassigned) [Example 647, (*R)-3-(1-Cyclopropyl-4-methyl-1H-benzo[d][1,2,3]triazol-5-yl)-3-(3-((1′,1′-dioxidospiro[piperidine-4,4′-pyrido[2,3-b][1,4,5]oxathiazepin]-2′(3′H)-yl)methyl)-4-methylphenyl)-2,2-dimethylpropanoic Acid] are less than 1 nM and 11.6 nM.
Consider `Cc1cnc2c(c1)S(=O)(=O)N(Cc1cc([C@H](c3ccc4c(nnn4C4CC4)c3C)C(C)(C)C(=O)O)ccc1C)CC1(CCNCC1)O2` (single isomer, unassigned) [Example 649, (*R)-3-(1-Cyclopropyl-4-methyl-1H-benzo[d][1,2,3]triazol-5-yl)-2,2-dimethyl-3-(4-methyl-3-((8′-methyl-1′,1′-dioxidospiro[piperidine-4,4′-pyrido[2,3-b][1,4,5]oxathiazepin]-2′(3′)-yl)methyl)phenyl)propanoic Acid], for which the Kd in test [1] was found to be 1450 nM. In test [2], this molecule registered an EC50 of 4750 nM.
With `Cc1cnc2c(c1)S(=O)(=O)N(Cc1cc([C@@H](c3ccc4c(nnn4C4CC4)c3C)C(C)(C)C(=O)O)ccc1C)CC1(CCNCC1)O2` (single isomer, unassigned) [Example 650, (*S)-3-(1-Cyclopropyl-4-methyl-1H-benzo[d][1,2,3]triazol-5-yl)-2,2-dimethyl-3-(4-methyl-3-((8′-methyl-1′,1′-dioxidospiro[piperidine-4,4′-pyrido[2,3-b][1,4,5]oxathiazepin]-2′(3′H)-yl)methyl)phenyl)propanoic Acid], the Kd in test [1] was less than 1 nM. This molecule displayed an EC50 in test [2] of 4.36 nM.
On the same counts, the results for `Cc1ncc([C@@H](c2ccn3c(C(F)(F)F)nnc3c2C)C(C)(C)C(=O)O)cc1CN1C[C@@H]2CCCCN2c2ncc(C#N)cc2S1(=O)=O` (single isomer, unassigned) [Example 655, (*R)-3-(5-(((*S)-3-Cyano-5,5-dioxido-7,7a,8,9,10,11-hexahydro-6H-dipyrido[2,1-d:2′,3′-f][1,2,5]thiadiazepin-6-yl)methyl)-6-methylpyridin-3-yl)-2,2-dimethyl-3-(8-methyl-3-(trifluoromethyl)-[1,2,4]triazolo[4,3-a]pyridin-7-yl)propanoic Acid] are less than 1 nM and 138 nM.
